The series can be described thus: pKa of the pesticidal active ingredient. The format is physicochemical. The source says: When the acidic pesticidal active ingredient having the above specified pKa is used, the pKa of the ingredient is, for example, measured by a method described in “Jikken Kagaku Kouza”, Vol. 5 (thermal measurement and equilibrium), p. 469-p. 474, Maruzen Co., Ltd. published Jan. 20, 1958 and elsewhere.

The structures appear in SMILES notation.

The record followed here is US7829499B2, “Granular pesticide preparation” (Kumiai Chemical Industry Co., Ltd., priority 2003, dated 2010).

In general, pKa refers to the pH at which an ionisable group is half protonated. A lower pKa goes with a group that gives up its proton readily. For the compound `COCc1cccc(C(O)c2nc(OC)cc(OC)n2)c1NS(=O)(=O)C(F)F` (centres unmarked) [compound A, 2-[(4,6-dimethoxypyrimidin-2-yl)hydroxymethyl]-6-methoxymethyl-N-difluoromethanesulfonyl anilide], the pKa amounted to 5.75.
As for `CCc1cccc(C(O)c2nc(OC)cc(OC)n2)c1NS(=O)(=O)C(F)F` (centres unmarked) [compound B, 2-[(4,6-dimethoxypyrimidin-2-yl)hydroxymethyl]-6-ethyl-N-difluoromethanesulfonyl anilide], the pKa was found to be 6.17.
